Assay [1] relates to normal NIH 3T3 cells and several oncogene transformed NIH 3T3 cell lines. Particulars: in culture; prior work (A. P. Kozikowski); cited from earlier work.
Assay [2] deals with v-sis oncogene-expressing NIH 3T3 cells. The experiment in a line: Cell growth inhibition, v-sis oncogene-expressing NIH 3T3 cells, 3 days. Type of assay: cell-based. Particulars: for IC50: Mus musculus, NIH3T3, 72 h, 3 days. On the procedure:
(§1) Wild type NIH 3T3 cells and v-sis oncogene-expressing NIH 3T3 cells were maintained in bulk culture in DMEM with 10% heat inactivated calf serum and passaged using 0.05% trypsin and 0.5 mM EDTA. For cell growth assays, the cells were plated at a density of 5×10^3 cells in 1.6 cm diameter culture wells in 0.5 ml DMEM containing 10% heat inactivated calf serum and allowed to attach to the surface of the well for 24 hr. The medium was then replaced with fresh medium containing the myo-inositol analogues. […] Adherent cells were harvested after 3 days and were counted using an automated cell counter. Inhibition of cell growth caused by serial concentrations of analogues was expressed as a percentage of the number of nontreated cells at the end of the 3-day incubation period. Incubations were conducted in quadruplicate. The mean concentration of analogue required to cause 50% inhibition of cell growth (IC50)±S.E. was calculated from nonlinear least-squares regression analysis of the cell-proliferation concentration data (P. L. Appel et al., Cancer Chemother. Pharmacol., 17, 47 (1986)).

Assay [3] relates to NIH 3T3 cells (wild type). The experiment in a line: Cell growth inhibition, wild type NIH 3T3 cells, 3 days. It is filed as cell-based. Particulars: for IC50: Mus musculus, NIH3T3, 72 h, 3 days. On the procedure: as §1
The next assay relates to HT-29 cells. The experiment in a line: Soft agar colony forming assay, HT-29 colon carcinoma, 7 days. Type of assay: cell-based. The note with it: Homo sapiens, HT-29, 168 h, medium with 40 μM myo-inositol, read-out: IC50 for inhibition of colony formation. On the procedure:
The human colon carcinoma cell line, HT-29, was chosen as being representative of a clinically very important, slow growing and chemotherapy resistant human solid tumor. Many human colon cancer lines, including HT-29, have the v-sis oncogene (D. L. Trainer et al., Int. J. Cancer, 41, 287 (1988)). The growth of HT-29 cells was measured by colony formation in the soft agar colony forming assay over 7 days, with automated colony counting using a Omicon 3600 Image Analysis System, as described previously by M. C. Alley et al., 44, 549 (1984).
All soft-agarose cultures were performed in similar fashion. Each 35-mm culture dish contained a base layer consisting of 0.5 ml of standard DMEM culture medium (with 40 μM myo-inositol) with 0.5% agarose. On Day 0, cells in bulk culture were dissociated with trypsin and EDTA, washed once in growth medium, and subcultured by layering 1×10^4 viable cells in 0.5 ml of growth medium with 0.3% agarose over each base layer. Cultures were maintained in cell culture incubators at 37° C., 5% CO2 :95% air, and 100% relative humidity. On Day 1 (24 hr later), an upper layer of 1 ml of growth medium containing drug was applied to each culture. Cell lines formed a sufficient number of detectable colonies (>60 μm diameter) for analysis following 7 days of incubation. […]

The mark [4] stands for this setting: - myo-inositol, ± S.E. of mean, read-out: v-sis NIH IC50.
The mark [5] stands for this setting: - myo-inositol, ± S.E. of mean, read-out: NIH IC50.

Broadly, the IC50 is the midpoint of a concentration-inhibition curve.

Structures are written as SMILES. Like-named read-outs stand apart in the source and are kept apart here.

On to `O[C@@H]1[C@@H](O)[C@H](O)[C@@H](F)[C@@H](O)[C@H]1O` [3-deoxy-3-fluoro-myo-inositol, reference compound], for which the “cell growth inhibitory activities” value in assay [1] is “exhibit cell growth inhibitory activities”. Besides, the IC50 was greater than 33000 µM in assay [2] (+ myo-inositol, read-out: v-sis NIH IC50 (class symbol)); 1000 µM in assay [2] (setting [4]); greater than 33000 µM in assay [3] (+ myo-inositol, read-out: NIH IC50 (class symbol)); 7000 µM in assay [3] (setting [5]).

As for `CCCCCCCCCCCCCCCC(=O)OC[C@H](COP(=O)(O)O[C@H]1[C@H](O)[C@@H](O)[C@H](O)[C@@H](F)[C@H]1O)OC(=O)CCCCCCCCCCCCCCC` [Compound 7, 3-Deoxy-3-fluoro-D-myo-inositol [(R)-2,3-bis(hexadecanoyloxy)propyl] hydrogen phosphate], the IC50 in the assay with HT-29 cells stood at 53 ± 9 µM; in assay [2] (+ myo-inositol, ± S.E. of mean, read-out: v-sis NIH IC50), 81 ± 11 µM; in assay [2] (setting [4]), 107 ± 15 µM; in assay [3] (+ myo-inositol, ± S.E. of mean, read-out: NIH IC50), 99 ± 13 µM; in assay [3] (setting [5]), 110 ± 20 µM. Also, the “antagonism of growth inhibition by myo-inositol” value in assay [2] (myo-inositol at physiological concentrations, v-sis NIH 3T3) was “not antagonized by myo-inositol at physiological concentrations”; in assay [3] (myo-inositol at physiological concentrations, wild type NIH 3T3), “not antagonized by myo-inositol at physiological concentrations”. Moreover, the “selectivity for growth inhibition of v-sis compared to wild type NIH 3T3 cell” value in assay [2] (v-sis vs wild type NIH 3T3) is listed as “lost”. Besides, in assay [3] (wild type NIH 3T3 cells, compared with D-3-deoxy-fluoro-myo-inositol), the “more potent inhibitor of cell growth than the simple myo-inositol analogue” value is “up to 1,000 fold”.

Source of the values: patent US5227508A, “3-deoxy-3-substituted analogs of phosphatidylinositol” (Mayo Foundation for Medical Education and Research, priority 1992, dated 1993).
